The test system of the test is Swiss mice, Sarcoma 180 sc, mean tumor weight T/C. In words: NCI In Vivo Anticancer Drug Screen. Data for tumor model Sarcoma 180 (subcutaneous) in Swiss mice. Particulars: endpoint: mean tumor weight, higher = larger tumour. A digest of the protocol:
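Readout is the ratio of treated-group measurement to vehicle-control measurement (T/C), based on survival or tumor size in mice carrying transplanted tumors.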

The mark [1] stands for this setting: dose: 83.0 mg/kg/injection, schedule: Q01DX007 (ip), vehicle: saline.
The mark [2] stands for this setting: dose: 125.0 mg/kg/injection, schedule: Q01DX007 (ip), vehicle: saline.

Results on ten compounds are retold here after PubChem BioAssay AID342 (DTP/NCI, 2004).

“And” between values parts separate entries of the source, which are not always exact repeats. Equal entries are not always repeated.

Usually T/C stands for the result in the treated group divided by that in the control group, in per cent. For `COc1cccc(/C=N\NC(=O)C(C)SC(C)C(=O)N/N=C/c2cccc(OC)c2)c1` (stereo not given), the T/C reads like this: (dose: 25.0 mg/kg/injection, schedule: Q01DX007 (ip), vehicle: carboxymethylcellulose (CMC)) 68 % of control; (dose: 38.0 mg/kg/injection, schedule: Q01DX007 (ip), vehicle: carboxymethylcellulose (CMC)) 62 % of control; (dose: 42.0 mg/kg/injection, schedule: Q#A X014 (ip), vehicle: carboxymethylcellulose (CMC)) 78 % of control; (dose: 53.0 mg/kg/injection, schedule: Q01DX007 (ip), vehicle: methylcellulose (MC)) 77 % of control; (dose: 56.0 mg/kg/injection, schedule: Q01DX007 (ip), vehicle: carboxymethylcellulose (CMC)) 35 % of control; (dose: 63.0 mg/kg/injection, schedule: Q#A X014 (ip), vehicle: carboxymethylcellulose (CMC)) 79 % of control. For the same compound, the T/C reads like this: (dose: 80.0 mg/kg/injection, schedule: Q01DX007 (ip), vehicle: methylcellulose (MC)) 63 % of control; (dose: 95.0 mg/kg/injection, schedule: Q#A X014 (ip), vehicle: carboxymethylcellulose (CMC)) 65 % of control; (dose: 120.0 mg/kg/injection, schedule: Q01DX007 (ip), vehicle: methylcellulose (MC)) 47 % of control; (dose: 142.5 mg/kg/injection, schedule: Q#A X014 (ip), vehicle: carboxymethylcellulose (CMC)) 61 % of control; (dose: 180.0 mg/kg/injection, schedule: Q01DX007 (ip), vehicle: methylcellulose (MC)) 59 % of control; (dose: 270.0 mg/kg/injection, schedule: Q01DX007 (ip), vehicle: methylcellulose (MC)) 58 % of control. The T/C is 64 % of control (dose: 300.0 mg/kg/injection, schedule: Q01DX007 (ip), vehicle: carboxymethylcellulose (CMC)) and 59 % of control (dose: 400.0 mg/kg/injection, schedule: Q01DX007 (ip), vehicle: carboxymethylcellulose (CMC)).
In the case of `O=C1CCCCC1C(=O)C(F)(F)F` (stereo not given), the T/C runs as follows: (dose: 27.75 mg/kg/injection, schedule: Q#A X014 (ip), vehicle: methylcellulose (MC)) 64 % of control; (dose: 27.75 mg/kg/injection, schedule: Q#A X014 (ip), vehicle: saline) 64 % of control; (dose: 41.65 mg/kg/injection, schedule: Q#A X014 (ip), vehicle: methylcellulose (MC)) 79 % of control; (dose: 41.65 mg/kg/injection, schedule: Q#A X014 (ip), vehicle: saline) 81 % of control; (dose: 55.0 mg/kg/injection, schedule: Q01DX007 (ip), vehicle: saline) 61 % of control; (dose: 62.5 mg/kg/injection, schedule: Q#A X014 (ip), vehicle: methylcellulose (MC)) 34 % of control. Besides, the T/C reads like this: (dose: 62.5 mg/kg/injection, schedule: Q#A X014 (ip), vehicle: saline) 28 % of control; under setting [1], 44 % of control; (dose: 93.75 mg/kg/injection, schedule: Q#A X014 (ip), vehicle: methylcellulose (MC)) 35 % of control and 52 % of control; (dose: 93.75 mg/kg/injection, schedule: Q#A X014 (ip), vehicle: saline) 37 % of control; (dose: 110.0 mg/kg/injection, schedule: Q02DX004 (ip), vehicle: saline) 40 % of control; under setting [2], 62 % of control. The T/C runs as follows: (dose: 165.0 mg/kg/injection, schedule: Q03DX003 (ip), vehicle: saline) 63 % of control; (dose: 166.0 mg/kg/injection, schedule: Q02DX004 (ip), vehicle: saline) 97 % of control; (dose: 187.0 mg/kg/injection, schedule: Q01DX007 (ip), vehicle: saline) 47 % of control; (dose: 250.0 mg/kg/injection, schedule: Q02DX004 (ip), vehicle: saline) 82 % of control; (dose: 352.0 mg/kg/injection, schedule: Q03DX003 (ip), vehicle: carboxymethylcellulose (CMC)) 83 % of control; (dose: 561.0 mg/kg/injection, schedule: Q03DX003 (ip), vehicle: saline) 53 % of control.
Regarding `CN1CCc2cc3c(cc2C(=O)Cc2ccc4c(c2C1)OCO4)OCO3`, the T/C was 109 % of control (dose: 1.56 mg/kg/injection, schedule: Q01DX007 (ip), vehicle: saline); 69 % of control (dose: 3.13 mg/kg/injection, schedule: Q01DX007 (ip), vehicle: saline); 119 % of control (dose: 6.25 mg/kg/injection, schedule: Q01DX007 (ip), vehicle: saline); 60 % of control (dose: 25.0 mg/kg/injection, schedule: Q01DX007 (ip), vehicle: saline); 64 % of control (dose: 50.0 mg/kg/injection, schedule: Q01DX007 (ip), vehicle: saline); 79 % of control (dose: 62.0 mg/kg/injection, schedule: Q01DX007 (ip), vehicle: carboxymethylcellulose (CMC)). Besides, the T/C (dose: 100.0 mg/kg/injection, schedule: Q01DX007 (ip), vehicle: saline) is 80 % of control.
On to `CCCCn1cnc2c(SSc3ncnc4c3ncn4CCCC)ncnc21`, for which the T/C was 82 % of control (dose: 53.0 mg/kg/injection, schedule: Q01DX007 (ip), vehicle: carboxymethylcellulose (CMC)); 62 % of control (dose: 53.0 mg/kg/injection, schedule: Q01DX007 (ip), vehicle: other); 65 % of control (dose: 83.0 mg/kg/injection, schedule: Q01DX007 (ip), vehicle: other); 71 % of control under setting [1]; 50 % of control (dose: 125.0 mg/kg/injection, schedule: Q01DX007 (ip), vehicle: other); 37 % of control under setting [2]. Further, where the note is “dose: 187.0 mg/kg/injection, schedule: Q01DX007 (ip), vehicle: other”, the T/C was 30 % of control.
With `C[C@]12CC[C@H]3[C@@H](CC=C4C[C@@H](OC5CCCCO5)CC[C@@]43C)[C@@H]1CC[C@@H]2O` (stereo not given in full), the T/C by setting is: (dose: 25.0 mg/kg/injection, schedule: Q#A X014 (oral), vehicle: steriod suspending solution) 95 % of control; (dose: 75.0 mg/kg/injection, schedule: Q#A X014 (oral), vehicle: steriod suspending solution) 95 % of control; (dose: 187.5 mg/kg/injection, schedule: Q#A X014 (oral), vehicle: steriod suspending solution) 80 % of control.
In the case of `C=C(C)C(=O)OCC1CO1` (stereo not given), the T/C by setting is: (dose: 250.0 mg/kg/injection, schedule: Q01DX007 (ip), vehicle: other) 97 % of control; (dose: 375.0 mg/kg/injection, schedule: Q01DX007 (ip), vehicle: other) 74 % of control.
`O=[N+]([O-])c1ccc2c(N=Nc3c(O)ccc4ccccc34)c(O)cc(S(=O)(=O)O)c2c1`: the T/C by setting is: (dose: 65.0 mg/kg/injection, schedule: Q01DX007 (ip), vehicle: saline) 70 % of control; (dose: 95.0 mg/kg/injection, schedule: Q01DX007 (ip), vehicle: saline) 82 % of control; (dose: 145.0 mg/kg/injection, schedule: Q01DX007 (ip), vehicle: saline) 66 % of control; (dose: 330.0 mg/kg/injection, schedule: Q01DX007 (ip), vehicle: saline) 49 % of control.
In the case of `CC(C)Sc1nc(N)nc2c1ncn2C1OC(CO)C(O)C1O` (stereo not given), the T/C runs as follows: (dose: 1.35 mg/kg/injection, schedule: Q#A X014 (ip), vehicle: methylcellulose (MC)) 69 % of control; (dose: 2.05 mg/kg/injection, schedule: Q#A X014 (ip), vehicle: methylcellulose (MC)) 95 % of control; (dose: 3.12 mg/kg/injection, schedule: Q#A X014 (ip), vehicle: methylcellulose (MC)) 53 % of control; (dose: 4.65 mg/kg/injection, schedule: Q#A X014 (ip), vehicle: methylcellulose (MC)) 86 % of control.
For the compound `C1OC1C1CO1` (stereo not given), the T/C reads like this: (dose: 4.5 mg/kg/injection, schedule: Q01DX007 (ip), vehicle: carboxymethylcellulose (CMC)) 68 % of control; (dose: 4.63 mg/kg/injection, schedule: Q01DX007 (ip), vehicle: carboxymethylcellulose (CMC)) 99 % of control; (dose: 9.0 mg/kg/injection, schedule: Q01DX007 (ip), vehicle: carboxymethylcellulose (CMC)) 97 % of control; (dose: 9.25 mg/kg/injection, schedule: Q01DX007 (ip), vehicle: carboxymethylcellulose (CMC)) 74 % of control; (dose: 13.76 mg/kg/injection, schedule: Q01DX007 (ip), vehicle: carboxymethylcellulose (CMC)) 80 % of control; (dose: 17.2 mg/kg/injection, schedule: Q01DX007 (ip), vehicle: carboxymethylcellulose (CMC)) 107 % of control. The T/C is 53 % of control (dose: 18.0 mg/kg/injection, schedule: Q01DX007 (ip), vehicle: carboxymethylcellulose (CMC)); 71 % of control (dose: 18.5 mg/kg/injection, schedule: Q01DX007 (ip), vehicle: carboxymethylcellulose (CMC)); 82 % of control (dose: 22.93 mg/kg/injection, schedule: Q01DX007 (ip), vehicle: carboxymethylcellulose (CMC)); 80 % of control (dose: 34.4 mg/kg/injection, schedule: Q01DX007 (ip), vehicle: carboxymethylcellulose (CMC)).
As for `O=C(O)c1ccccc1C(=O)OCc1ccccc1`, where the note is “dose: 500.0 mg/kg/injection, schedule: Q01DX007 (ip), vehicle: carboxymethylcellulose (CMC)”, the T/C was 72 % of control.
